Test results published in article PMC8449129, “Single tracer-based protocol for broad-spectrum kinase profiling in live cells with NanoBRET” (STAR Protocols, 2021).

Columns and labels:
Assay in all cases: cell-based
Set-up in all cases: NanoBRET live-cell target engagement; % occupancy from displacement of tracer K10 on NanoLuc-kinase fusions, mean n=3
Conditions in all cases: HEK293, read-out: % inhibition
MAP3K4 = MAP3K4 (Homo sapiens, UniProt Q9Y6R4)
Method in brief: (§1)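 Live-cell NanoBRET target engagement: cells expressing kinase–NanoLuc fusion with tracer treated with compound 2 h at 37 °C, 5% CO2. BRET read from donor (450 nm) and acceptor (610/630 nm) emission with 20 μM extracellular NanoLuc inhibitor; % occupancy calculated relative to tracer+DMSO and zero-BRET controls.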

ULK3 = ULK3 (Homo sapiens, UniProt Q6PHR2)
Method in brief: as §1

FYN = FYN (Homo sapiens, UniProt P06241)
Sequence of FYN (P06241 whole entry): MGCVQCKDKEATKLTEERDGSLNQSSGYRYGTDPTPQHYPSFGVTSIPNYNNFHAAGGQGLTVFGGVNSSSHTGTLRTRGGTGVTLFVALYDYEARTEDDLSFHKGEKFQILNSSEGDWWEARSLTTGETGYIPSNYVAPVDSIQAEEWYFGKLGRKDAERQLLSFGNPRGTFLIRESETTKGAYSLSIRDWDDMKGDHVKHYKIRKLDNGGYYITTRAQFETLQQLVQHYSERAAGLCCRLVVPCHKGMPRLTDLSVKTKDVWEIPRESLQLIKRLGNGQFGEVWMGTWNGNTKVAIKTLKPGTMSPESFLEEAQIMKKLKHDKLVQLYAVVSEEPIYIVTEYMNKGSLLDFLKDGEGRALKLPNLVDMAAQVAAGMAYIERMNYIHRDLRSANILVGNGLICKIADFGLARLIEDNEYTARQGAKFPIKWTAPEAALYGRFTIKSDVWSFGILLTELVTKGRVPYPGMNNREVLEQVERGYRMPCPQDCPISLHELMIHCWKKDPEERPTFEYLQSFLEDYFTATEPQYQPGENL
Method in brief: as §1

JNK3 = biological target: T1, JNK3 (Homo sapiens, UniProt P53779)
T1 construct: gene MAPK10
Method in brief: as §1

DAPK2 = DAPK2 (Homo sapiens, UniProt Q9UIK4)
Method in brief: as §1

NLK = NLK (Homo sapiens, UniProt Q9UBE8)
Method in brief: as §1

PAK4 = PAK4 (Homo sapiens, UniProt O96013)
Method in brief: as §1

TEK = TEK (Homo sapiens, UniProt Q02763)
Method in brief: as §1

TNK2 = TNK2 (Homo sapiens, UniProt Q07912)
Method in brief: as §1

MAP3K10 = MAP3K10 (Homo sapiens, UniProt Q02779)
Sequence of MAP3K10 (Q02779 whole entry): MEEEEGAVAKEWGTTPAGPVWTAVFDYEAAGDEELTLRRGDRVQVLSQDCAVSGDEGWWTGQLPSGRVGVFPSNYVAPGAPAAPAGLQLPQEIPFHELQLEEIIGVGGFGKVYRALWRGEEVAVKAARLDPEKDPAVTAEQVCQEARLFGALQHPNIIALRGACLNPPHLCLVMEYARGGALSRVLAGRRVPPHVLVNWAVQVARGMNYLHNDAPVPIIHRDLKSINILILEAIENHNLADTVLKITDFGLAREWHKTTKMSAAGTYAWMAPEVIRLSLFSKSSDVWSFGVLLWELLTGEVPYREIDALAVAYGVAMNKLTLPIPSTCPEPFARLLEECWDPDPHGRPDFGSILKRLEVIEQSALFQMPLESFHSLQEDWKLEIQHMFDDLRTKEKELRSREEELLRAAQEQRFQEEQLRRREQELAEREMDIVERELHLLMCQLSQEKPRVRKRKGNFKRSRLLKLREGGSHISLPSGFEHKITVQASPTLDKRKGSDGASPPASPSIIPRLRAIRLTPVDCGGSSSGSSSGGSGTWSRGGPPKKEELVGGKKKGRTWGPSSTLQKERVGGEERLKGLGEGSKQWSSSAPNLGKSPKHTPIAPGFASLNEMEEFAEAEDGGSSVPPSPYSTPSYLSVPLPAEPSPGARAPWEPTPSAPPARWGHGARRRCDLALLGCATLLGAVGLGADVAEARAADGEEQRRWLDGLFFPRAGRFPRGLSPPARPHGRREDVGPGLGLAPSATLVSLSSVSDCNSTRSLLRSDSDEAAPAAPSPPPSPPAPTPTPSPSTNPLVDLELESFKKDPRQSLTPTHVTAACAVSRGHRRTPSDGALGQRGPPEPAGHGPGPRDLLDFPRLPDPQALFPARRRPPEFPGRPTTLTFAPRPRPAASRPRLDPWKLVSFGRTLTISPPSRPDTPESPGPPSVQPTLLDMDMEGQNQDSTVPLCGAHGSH
Method in brief: as §1

FGFR2 = FGFR2 (Homo sapiens, UniProt P21802)
Method in brief: as §1

CDKL1 = CDKL1 (Homo sapiens, UniProt Q00532)
Method in brief: as §1

STK32B = STK32B (Homo sapiens, UniProt Q9NY57)
Sequence of STK32B (Q9NY57 whole entry): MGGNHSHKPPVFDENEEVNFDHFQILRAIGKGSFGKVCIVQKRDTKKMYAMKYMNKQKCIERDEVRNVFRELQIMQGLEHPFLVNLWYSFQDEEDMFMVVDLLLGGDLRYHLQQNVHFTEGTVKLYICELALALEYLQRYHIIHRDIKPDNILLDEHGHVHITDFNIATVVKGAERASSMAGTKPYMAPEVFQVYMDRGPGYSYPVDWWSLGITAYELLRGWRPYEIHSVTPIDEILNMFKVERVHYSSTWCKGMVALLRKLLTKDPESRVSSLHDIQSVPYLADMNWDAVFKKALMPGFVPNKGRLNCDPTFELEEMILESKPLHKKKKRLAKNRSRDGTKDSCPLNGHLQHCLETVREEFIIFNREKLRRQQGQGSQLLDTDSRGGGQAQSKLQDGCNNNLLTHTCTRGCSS
Method in brief: as §1

PRKX = PRKX (Homo sapiens, UniProt P51817)
Method in brief: as §1

STK17B = STK17B (Homo sapiens, UniProt O94768)
Sequence of STK17B (O94768 whole entry): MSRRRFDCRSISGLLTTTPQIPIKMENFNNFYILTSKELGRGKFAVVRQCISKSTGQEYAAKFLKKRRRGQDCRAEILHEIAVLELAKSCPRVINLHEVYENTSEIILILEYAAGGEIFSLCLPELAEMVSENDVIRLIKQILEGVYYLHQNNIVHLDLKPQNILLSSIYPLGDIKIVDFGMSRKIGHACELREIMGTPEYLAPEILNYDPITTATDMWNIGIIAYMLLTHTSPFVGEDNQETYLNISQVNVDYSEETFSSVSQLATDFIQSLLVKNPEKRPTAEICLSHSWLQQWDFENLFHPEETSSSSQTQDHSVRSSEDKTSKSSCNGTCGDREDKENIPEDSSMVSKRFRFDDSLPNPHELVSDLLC
Method in brief: as §1

MAPK4 = MAPK4 (Homo sapiens, UniProt P31152)
Method in brief: as §1

LRRK2 = LRRK2 (Homo sapiens, UniProt Q5S007)
Sequence of LRRK2 (Q5S007 whole entry): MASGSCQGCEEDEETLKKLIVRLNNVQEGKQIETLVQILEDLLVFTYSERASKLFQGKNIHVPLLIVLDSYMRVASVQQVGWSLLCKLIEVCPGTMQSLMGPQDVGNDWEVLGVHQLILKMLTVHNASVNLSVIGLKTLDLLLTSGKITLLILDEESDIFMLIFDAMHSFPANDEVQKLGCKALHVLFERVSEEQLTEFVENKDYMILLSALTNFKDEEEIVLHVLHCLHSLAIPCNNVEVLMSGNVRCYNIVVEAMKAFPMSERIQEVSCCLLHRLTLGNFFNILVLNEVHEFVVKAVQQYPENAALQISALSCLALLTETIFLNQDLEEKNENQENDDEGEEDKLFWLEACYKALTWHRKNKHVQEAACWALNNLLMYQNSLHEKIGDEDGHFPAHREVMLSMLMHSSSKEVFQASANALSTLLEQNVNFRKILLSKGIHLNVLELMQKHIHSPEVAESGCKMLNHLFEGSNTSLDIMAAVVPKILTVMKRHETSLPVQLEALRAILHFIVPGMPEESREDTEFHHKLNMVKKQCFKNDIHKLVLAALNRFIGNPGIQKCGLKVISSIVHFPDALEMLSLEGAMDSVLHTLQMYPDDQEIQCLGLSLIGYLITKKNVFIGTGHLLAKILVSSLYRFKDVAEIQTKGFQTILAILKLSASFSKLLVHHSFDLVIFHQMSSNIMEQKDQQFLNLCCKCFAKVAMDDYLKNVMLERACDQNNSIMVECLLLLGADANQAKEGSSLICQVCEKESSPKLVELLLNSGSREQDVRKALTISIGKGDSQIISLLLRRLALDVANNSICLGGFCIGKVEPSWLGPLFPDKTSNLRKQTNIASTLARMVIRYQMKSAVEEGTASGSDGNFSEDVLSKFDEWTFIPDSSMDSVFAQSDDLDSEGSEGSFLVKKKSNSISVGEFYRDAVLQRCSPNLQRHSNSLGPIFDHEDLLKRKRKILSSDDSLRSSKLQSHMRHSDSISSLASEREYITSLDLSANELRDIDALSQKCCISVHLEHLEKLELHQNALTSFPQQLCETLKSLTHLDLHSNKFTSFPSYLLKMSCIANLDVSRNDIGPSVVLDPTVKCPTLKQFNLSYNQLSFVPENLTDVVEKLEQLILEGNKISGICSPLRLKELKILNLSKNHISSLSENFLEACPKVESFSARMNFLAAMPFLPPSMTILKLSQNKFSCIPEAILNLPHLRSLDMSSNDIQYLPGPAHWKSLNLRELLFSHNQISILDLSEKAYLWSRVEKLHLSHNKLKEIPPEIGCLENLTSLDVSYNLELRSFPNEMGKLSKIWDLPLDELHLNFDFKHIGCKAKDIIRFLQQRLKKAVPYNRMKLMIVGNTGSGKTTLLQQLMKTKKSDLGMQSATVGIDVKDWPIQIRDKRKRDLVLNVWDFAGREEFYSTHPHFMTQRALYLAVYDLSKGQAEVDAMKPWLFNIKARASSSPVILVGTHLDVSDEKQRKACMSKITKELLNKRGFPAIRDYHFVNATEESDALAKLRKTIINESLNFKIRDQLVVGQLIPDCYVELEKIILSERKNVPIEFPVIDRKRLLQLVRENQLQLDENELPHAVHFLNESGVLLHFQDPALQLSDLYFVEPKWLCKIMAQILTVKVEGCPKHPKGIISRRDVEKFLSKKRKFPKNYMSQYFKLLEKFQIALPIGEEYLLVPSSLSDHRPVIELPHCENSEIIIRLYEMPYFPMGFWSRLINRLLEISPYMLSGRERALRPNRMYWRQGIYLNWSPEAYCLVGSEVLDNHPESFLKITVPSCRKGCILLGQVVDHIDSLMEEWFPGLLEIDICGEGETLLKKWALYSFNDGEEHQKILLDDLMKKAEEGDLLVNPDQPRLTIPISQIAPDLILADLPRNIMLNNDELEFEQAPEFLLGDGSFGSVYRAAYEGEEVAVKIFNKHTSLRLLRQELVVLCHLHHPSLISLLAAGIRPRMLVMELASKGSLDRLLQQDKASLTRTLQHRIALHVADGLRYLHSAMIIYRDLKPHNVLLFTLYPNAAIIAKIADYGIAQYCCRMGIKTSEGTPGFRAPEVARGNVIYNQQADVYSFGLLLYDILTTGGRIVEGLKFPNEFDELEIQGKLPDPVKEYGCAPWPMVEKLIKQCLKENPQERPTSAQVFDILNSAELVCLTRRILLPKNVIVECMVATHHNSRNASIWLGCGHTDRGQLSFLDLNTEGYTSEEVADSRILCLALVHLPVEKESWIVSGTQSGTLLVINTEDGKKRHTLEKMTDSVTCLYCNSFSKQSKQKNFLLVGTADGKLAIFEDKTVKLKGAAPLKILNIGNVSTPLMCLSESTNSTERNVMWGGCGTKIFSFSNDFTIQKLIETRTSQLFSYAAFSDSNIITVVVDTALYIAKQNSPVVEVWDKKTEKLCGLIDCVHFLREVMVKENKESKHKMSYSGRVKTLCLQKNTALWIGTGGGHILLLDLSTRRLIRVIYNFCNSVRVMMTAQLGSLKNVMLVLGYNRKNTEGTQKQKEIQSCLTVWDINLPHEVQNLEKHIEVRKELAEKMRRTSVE
Method in brief: as §1

CDK5 = CDK5 (Homo sapiens, UniProt Q00535)
Sequence of CDK5 (Q00535 whole entry): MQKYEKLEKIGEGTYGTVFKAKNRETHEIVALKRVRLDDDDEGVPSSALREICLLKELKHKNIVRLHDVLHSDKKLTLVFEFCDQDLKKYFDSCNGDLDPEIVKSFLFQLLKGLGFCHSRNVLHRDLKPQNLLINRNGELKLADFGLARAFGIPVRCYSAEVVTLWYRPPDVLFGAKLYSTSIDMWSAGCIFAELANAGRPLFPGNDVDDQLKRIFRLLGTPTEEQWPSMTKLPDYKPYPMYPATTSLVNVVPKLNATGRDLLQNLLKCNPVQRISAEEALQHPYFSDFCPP
Method in brief: as §1

## C[C@@H](Oc1cc(-c2cnn(C3CCNCC3)c2)cnc1N)c1c(Cl)ccc(F)c1Cl [crizotinib]
MAP3K4
  inhibition at 1 µM: -1%
ULK3
  inhibition at 1 µM: 2%
FYN
  inhibition at 1 µM: -2%
JNK3
  inhibition at 1 µM: -4%
DAPK2
  inhibition at 1 µM: 3%
NLK
  inhibition at 1 µM: -1%
PAK4
  inhibition at 1 µM: 1%
TEK
  inhibition at 1 µM: 37%
TNK2
  inhibition at 1 µM: 13%
MAP3K10
  inhibition at 1 µM: -1%
FGFR2
  inhibition at 1 µM: 10%
CDKL1
  inhibition at 1 µM: 2%
STK32B
  inhibition at 1 µM: -1%
PRKX
  inhibition at 1 µM: -14%
STK17B
  inhibition at 1 µM: 0%
MAPK4
  inhibition at 1 µM: -12%
LRRK2
  inhibition at 1 µM: -9%
CDK5
  inhibition at 1 µM: 1%
